According to patent US20090325909A1, “Suppression of HIV replication and prevention and treatment of HIV” (The Johns Hopkins University, priority 2003, published 2009):
Structures can show the parent of a compound that is named as a salt.

Experiments:
[1] = system: SIV/DeltaB670 and SIV/17E-Fr; assay: Incidence and severity of encephalitis in the accelerated SIV/macaque model; assay type: in vivo, pigtailed macaques (Macaca nemestrina); conditions: 4 mg/kg/day oral from 21 days p.i., euthanized at 84 days p.i., n = 5
Text: Primate model for asymptomatic acute SIV infection. To identify events during acute and asymptomatic infection that lead to CNS disease a SIV/macaque model was developed in which the vast majority of infected animals develop CNS disease. […] These findings indicated the presence of mechanisms in the CNS that quell SIV replication and macrophage activation early after infection.
To identify events during acute and asymptomatic infection that lead to CNS disease in a SIV/macaque, a model was needed in which the vast majority of infected animals develop CNS disease. […] Virus replication and macrophage activation markers in the CNS declined in all macaques by 21 days p.i., despite high levee virus replication in the peripheral blood at this time. These findings indicated the presence of mechanisms in the CNS that quell SIV replication and macrophage activation early after infection.
Animals. Twenty-eight pigtailed macaques (Macaca nemestrina) were intravenously inoculated with a virus swarm, SIV/DeltaB670, and a cloned, neurovirulent virus, SIV/17Efr. Samples of brain tissue (basal ganglia and adjacent subcortical white matter) from macaques euthanized at 10 (n=6), 21′ (n=5), 56 (n=5) and 84 (n−=12) days p.i., and from uninfected control macaques (n=3 to 8) were fixed and embedded and […] sections were cut for immunohistochemical analysis of MAPKs. Of the macaques euthanized at 84 days p.i., one had no morphologic signs of encephalitis, two had mild encephalitis, five had moderate encephalitis and four had severe encephalitis based on morphologic criteria.
All macaques were euthanized at 84 days p.i. and their brains examined for pathological lesions typical of SIV encephalitis.

HIVIIIB = assay: HIV replication in primary human PBL, p24 ELISA; assay type: cell-based
Text: (§1) The HIV strains used in these experiments were HIVBaL (for macrophage infection) and HIVIIIB (for lymphocyte infection); the SIV strains were SIV/17E-Fr and SIV/DeltaB670 (both grow well in primary macrophages and lymphocytes.).
(§2) Virus replication was quantified over time by p24 (HIV) or p27 (SIV) ELISA.

HIVBaL = assay: HIV replication in primary human macrophages, p24 ELISA; assay type: cell-based
Text: as §1, §2

[2] = system: SIV/17E-Fr and SIV/DeltaB670; assay: SIV replication in primary macaque macrophages, p27; assay type: cell-based; conditions: for reduction in SIV p27 levels: SIV/DeltaB670-infected macrophages, 10 days p.i.
Text: as §1, §2
Inhibition of SIV Virus in vitro. […]

[3] = system: SIV/17E-Fr and SIV/DeltaB670; assay: SIV replication in primary macaque PBL, p27 ELISA; assay type: cell-based; conditions: pretreated with minocycline 24 hr prior to infection
Text: as §1, §2

[4] = pretreated with minocycline 24 hr prior to infection

CN(C)c1ccc(O)c2c1C[C@H]1C[C@H]3[C@H](N(C)C)C(O)=C(C(N)=O)C(=O)[C@@]3(O)C(O)=C1C2=O [Minocycline, [4S-(4a,4aa,5aa,12aa)-4,7-bis(dimethylamino)-1,4,4a,5,5a,6,11,12a-octahydro-3,10,12,12a-tetrahydroxy-1,11-dioxo-2-naphthacenecarboxamide]monohydrochloride]
Severity of Encephalitis: Mild (number of macaques) [1]: 2
Severity of Encephalitis: Moderate (number of macaques) [1]: 0
Severity of Encephalitis: None (number of macaques) [1]: 3
Severity of Encephalitis: Severe (number of macaques) [1]: 0
reduction in HIV p24 levels (HIVIIIB; HIV-infected lymphocytes, 40 μg/ml 24 hours prior to infection, 9 days p.i.): 92%
inhibition of HIV replication in PBL (HIVIIIB; [4]): 92%
reduction in HIV p24 levels (HIVBaL; HIV-infected macrophages, 40 μg/ml 24 hours prior to infection, 9 days p.i.): 99%
inhibition of HIV replication in macrophages (HIVBaL; [4]): 99%
inhibition of virus replication ([2]; SIV/17E-Fr-infected macrophages): 85%
reduction in SIV p27 levels ([2]; 10 μg/ml at the time of infection): 95%
reduction in SIV p27 levels ([2]; 40 μg/ml prior to infection): 98%
inhibition of SIV replication in macrophages [2, 4]: 85%
inhibition of SIV replication in PBL [3]: 99%
